Data taken from patent EP4548971A1, “1,4-BENZOTHIAZEPINES AND RELATED COMPOUNDS WITH CYCLOPROPANOL GROUPS AS MULTI-TARGETED DRUGS” (Georg-August-Universität Göttingen Stiftung Öffentlichen …, priority 2023, dated 2025).
Entries after “also recorded” stand apart in the source; their conditions may differ.

Experiments:
HL-1 cardiac cells = test: CytoTox-Glo cytotoxicity assay (cell viability); format: cell-based; details: CytoTox-Glo assay in 100 µM solutions after 24 h incubation
Procedure: Cell viability was assessed using CytoTox-Glo™ Cytotoxicity Assay according to the manufacturing procedure (Promega GmbH). Briefly, HL-1 cardiac cells were cultivated for 24 h in black-walled, clear-bottom 96-well micro-plates (Corning) covered with fibronectin in DMEM, containing different concentrations of the tested compound (10,000 cells/well). Luminescence of a luminogenic peptide substrate was measured before and after addition of the lysis reagent (digitonin). The viable cell contribution was determined by a subtractive method. 0.1% DMSO treated cell were taken as a control.
(§1) The membrane permeability of the derivatives was determined using cell-free transport models (PermeaPad®, innoME GmbH), and permeability rates (Pe), which are a measure of how fast a compound can cross a membrane, were established (Table 1).

SERCA2a = target: T1, SERCA2a (Mus musculus, UniProt O55143); test: Caffeine-induced Ca2+ release assay on HL-1 cells; format: cell-based; design: key to SERCA2a HL-1 effect class: +++: a strong effect, comparable to or greater than that of a known compounds at a given concentration (25 µM in RyR2 R-CEPIA1er assay, 10 µM in caffeine assay and on microsomal membrane vesicles); ++: moderate effect; +: observable effect; -: no effect
T1 construct: host or cells: HL-1 cardiac cells
T1 sequence (O55143 1-998 isoform O55143-2): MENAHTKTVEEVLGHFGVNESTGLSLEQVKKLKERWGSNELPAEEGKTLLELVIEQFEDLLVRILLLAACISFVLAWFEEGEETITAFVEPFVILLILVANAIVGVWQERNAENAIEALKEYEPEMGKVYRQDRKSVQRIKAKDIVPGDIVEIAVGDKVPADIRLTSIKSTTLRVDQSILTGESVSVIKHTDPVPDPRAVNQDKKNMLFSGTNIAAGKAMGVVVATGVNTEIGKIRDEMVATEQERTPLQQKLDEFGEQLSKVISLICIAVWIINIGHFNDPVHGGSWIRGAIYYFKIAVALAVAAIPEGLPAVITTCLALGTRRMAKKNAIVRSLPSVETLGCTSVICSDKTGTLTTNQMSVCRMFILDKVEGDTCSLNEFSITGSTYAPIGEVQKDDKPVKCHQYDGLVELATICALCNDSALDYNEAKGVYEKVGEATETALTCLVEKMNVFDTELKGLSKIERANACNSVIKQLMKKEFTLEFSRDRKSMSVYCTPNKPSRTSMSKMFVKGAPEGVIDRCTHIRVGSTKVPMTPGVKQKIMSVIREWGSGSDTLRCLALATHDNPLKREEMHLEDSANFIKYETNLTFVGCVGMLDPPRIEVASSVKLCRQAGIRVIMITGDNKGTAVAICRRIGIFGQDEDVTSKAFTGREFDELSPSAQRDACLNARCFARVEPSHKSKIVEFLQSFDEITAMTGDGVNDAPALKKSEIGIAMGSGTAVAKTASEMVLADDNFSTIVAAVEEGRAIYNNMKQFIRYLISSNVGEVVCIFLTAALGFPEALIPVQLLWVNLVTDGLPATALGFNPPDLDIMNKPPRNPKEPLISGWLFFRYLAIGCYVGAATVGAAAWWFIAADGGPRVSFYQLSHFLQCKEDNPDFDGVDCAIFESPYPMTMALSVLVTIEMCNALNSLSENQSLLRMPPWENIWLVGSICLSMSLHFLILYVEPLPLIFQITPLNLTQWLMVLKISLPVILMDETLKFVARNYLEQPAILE
Procedure: HL-1 cardiac cells (SCC065, Merck KGaA, Darmstadt, Germany) were cultivated in Claycomb's Medium (51800C, Merck KGaA, Darmstadt, Germany), supplemented with Glutamax, 10% fetal bovine serum, 0.9% Penicillin/Streptomycin and 0.1 mM Noradrenaline (Merck KGaA, Darmstadt, Germany) on fibronectin/gelatin (Merck KGaA, Darmstadt, Germany) coated culture bottles or plates two days before plating.
HL-1 cardiac cells (50000 per well) were cultivated for 24 h in black-walled, clear-bottom 96-well micro-plates (Corning, Amsterdam, The Netherlands) covered with fibronectin/gelatin (Merck KGaA, Darmstadt, Germany) in a humidified incubator at 37 °C and 5% CO2.
Changes in Ca^2+ concentration were measured on a multiwell plate reader TECAN Spark 20M using FLIPR 6 Calcium Assay Kit from Molecular Devices (Molecular Devices LLC, München, Germany) at 37 °C. The 1000 × stock solutions of the test compounds were prepared in DMSO. 100 µl solution of test compound in Tyrode's solution containing FLIPR Calcium 6 dye was incubated for 2 hours at 37°C and 5% COz in a humidified incubator. The time courses were recorded in each well. Fluorescence was evoked at 485 nm excitation wavelength and read out in a bottom-read mode at 525 nm. Data were recorded every 2 s, exposure - 20 flashes, excitation bandwidth - 10 nm, emission bandwidth - 15 nm. To initiate Ca^2+ influx, 25 µl of 50 mM caffeine solution in Tyrode's solution containing 2 mM CaCl2 was injected in each well (speed 100 µl/s) at 10 s time point, resulting in 10 mM final concentration in the well. The differences between the caffeine induced peak minus basal fluorescence, ΔFCaff, were taken for the analysis. The Tyrode's solution + 0.1 v/v% DMSO was used as a control. The dose response curves were calculated using the software package GraphPad Prism version 8.3.1. All data are presented as mean ± S.D. from 8 independent experiments. Y=Bottom + (Top-Bottom)/(1+10^((LogEC50-X)*HillSlope)) was used where HillSlope describes the steepness of the curve, Top and Bottom are plateaus in the units of the Y axis.
The SERCA2a activity of the compounds was confirmed in two orthogonal biochemical assays: caffeine-induced Ca^2+ release assay and nicotinamide adenine dinucleotide (NADH) assay on microsomal membrane vesicles from mouse heart ventricles (mouse SER) and HEK-293T cells (HEK-293 ER). The effect of caffeine-induced Ca^2+ release in HL-1 cells, immortalized mouse cardiomyocytes, treated with the cytosolic Ca^2+ indicator FLIPR Calcium 6 (Molecular Devices) was investigated.
When caffeine binds to the RyR channel, it interacts with specific amino acids of the protein, and this interaction causes conformational changes in the protein's structure [A. des Georges, O. B. Clarke, R. Zalk, Q. Yuan, K. J. Condon, R. A. Grassucci, W. A. Hendrickson, A. R. Marks, J. Frank, Structural Basis for Gating and Activation of RyR1. Cell 2016, 167, 145 - 157.e17]. This opens the RyR2 channel pore, enabling the mass release of calcium ions from the SER Ca^2+ store.

[1] = Membrane permeability, PermeaPad plate (cell-free transport model); format: in vitro ADME
Procedure: Membrane permeability was assessed using PermeaPad® Plate according to the manufacturing procedure (innoME GmbH, Espelkamp, Germany). Briefly, 200 µl water was added into acceptor plate. 200 µl of 100 - 500 µM test compound in water was added directly to the well membranes of the donor plate. The donor plate contains a biomimetic membrane for simulating passive mass transfer through different barriers in the body. Then the donor plate was placed into the acceptor plate wells and incubated at room temperature for 24 hours in dark. To determine peak absorbance of test compounds, absorbance spectra of acceptor solutions and initial solutions for each test compound were read out. The Permeability Rate (Pe) was calculated using the formula: Pe = C × −ln(1−(ODA)/(ODE)) cm/s, [formula]
where ODA is the absorbance of acceptor solution, ODE is the absorbance of the standard solution; if the compound is able to permeabilize the membrane and fully reach equilibrium, 250 µM will be the final concentration of solution in the donor and acceptor wells. The coefficient C was calculated using the formula: C = (VD × VA)/((VD+VA) × Area × time), [formula] where VA - acceptor volume (cm^3), VD - donor volume (cm^3), membrane area 0.24 cm^2, time is 86,400 s.
as §1

Structure (SMILES): COc1ccc2c(c1)CN(C)CCS2 [Compound S107, reference compound]
- Viability (HL-1 cardiac cells): 98%
- SERCA2a HL-1 effect class (SERCA2a; 10 µM in caffeine assay): -
- effect in caffeine-induced Ca^2+ release assay, in words (SERCA2a; HL-1 cells incubated 2 h with compound, 10 mM caffeine): no concentration dependent effect; also recorded: didn't show any effects on SR Ca^2+ content
- Pe rating in words (low / medium / high; poor) [1]: medium
- Pe ([1]; permeability rate, room temperature, 24 hours): 1.2 10^-6 cm/s
